Laboratory results published in patent publication US12422427B2, “Compounds for treatment of diseases and methods of screening therefor” (Max-Planck-Gesellschaft zur Förderung der Wissenschaften …, priority 2018, dated 2025).

Tests used:
[1] = system: HeLa cells expressing FUS GFP; experiment: HeLa FUS GFP live imaging: pre-stress then treatment, and pre-treatment with wash-out; format: cell-based
Experimental: To determine if lipoic acid can lead to dissolution of existing stress granules the inventors pre-stressed HeLa cells expressing FUS-GFP cells then treated them with lipoamide. […] This response is likely too rapid to represent a transcription/translation response.
To test if treatment of cells with lipoamide can give a persistent resistance to stress granule formation in the absence of continued lipoamide treatment 1 h pre-treatment of HeLa cells with 10 μM lipoamide followed by 1 h arsenate stress without lipoamide was tested.
Compound effects were assessed under a variety of conditions in HeLa or iPS cells expressing wild-type or P525L FUS GFP by live cell imaging. Different combinations of 1 h pre-treatment compound or pre-stress with arsenate followed by 1 h treatment with compound and/or stress with arsenate. […] GFP fluorescence was imaged by widefield epifluorescence using an inverted Olympus IX71 microscope with an Olympus 100× NA 1.4 Plan Apo oil immersion objective and a CoolSNAP HQ CCD camera (Photometrics), using a DeltaVision climate control unit (37° C., 5% CO2) (Applied Precision). The kinetics of pre-stress followed by treatment was analysed from images captured at 2 min intervals for 100 min, for single time points images were captured after 1 h unless otherwise indicated.

[2] = molecular target: T1, FUS eGFP condensate (Homo sapiens, UniProt P35637); experiment: Optical tweezers fusion assay of FUS condensate liquidity; format: biochemical
T1 sequence (P35637 1-526): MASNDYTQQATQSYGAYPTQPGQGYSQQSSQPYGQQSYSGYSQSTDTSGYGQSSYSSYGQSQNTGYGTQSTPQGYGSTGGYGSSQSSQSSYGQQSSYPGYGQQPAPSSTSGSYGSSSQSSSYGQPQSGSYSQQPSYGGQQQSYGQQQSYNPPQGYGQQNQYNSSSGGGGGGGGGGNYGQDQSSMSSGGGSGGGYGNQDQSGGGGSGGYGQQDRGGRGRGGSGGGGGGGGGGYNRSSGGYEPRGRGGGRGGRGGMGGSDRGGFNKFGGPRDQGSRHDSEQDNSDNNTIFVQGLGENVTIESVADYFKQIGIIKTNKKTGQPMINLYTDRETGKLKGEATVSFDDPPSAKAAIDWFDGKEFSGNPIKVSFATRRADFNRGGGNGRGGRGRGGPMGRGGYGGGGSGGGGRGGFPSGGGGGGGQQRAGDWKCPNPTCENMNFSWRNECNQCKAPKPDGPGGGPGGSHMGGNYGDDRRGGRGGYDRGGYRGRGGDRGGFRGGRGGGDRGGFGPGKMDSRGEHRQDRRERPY
Experimental: FIG. 5A) Schematic illustrating the quantitation of condensate droplet liquidity using optical tweezers. Two droplets are brought into contact and begin to fuse the time taken to relax to a single spherical droplet (once adjusted for droplet size) is a measure of the viscosity to surface tension ratio of the droplet—a measure of liquidity. Representative of two independent replicates. FIG. 5B) Droplet size-corrected relaxation times for droplet fusions with either 300 μM lipoamide or equivalent DMSO solvent control (0.3%). Box represents the 25th, 50th and 75th percentiles, whiskers represent 5th and 95th percentiles. […] FIGS. 5C-5E) Effect of 10 μM lipoamide on G156E FUS GFP condensates (formed under dextran crowding) on ‘aging’ while shaking, relative to an equivalent DMSO solvent control (0.1%). These conditions match those previously published^7. FIG. 5C) Representative images after 30 h aging, showing fibre formation in the DMSO sample. FIG. 5D) Representative fluorescence recovery after photobleaching (FRAP) time series of FUS condensates and fibres during aging. FIG. 5E) Quantitation of FRAP in FIG. 5C). Error bars represent standard deviation. […] Both compounds delay fibre formation.
Lipoamide effect on FUS eGFP condensate liquidity (surface tension and viscosity) was determined. Here, condensate droplets were brought together by optical tweezers and the rate of fusion and relaxation to a sphere was measured (FIG. 5A).

[3] = Attainable concentration / precipitation of lipoamide in aqueous media; format: physicochemical
[4] = system: KIN-19; format: in vivo, Caenorhabditis elegans; details: 1.5 mM
Experimental: The effect of lipoic acid on stress granule protein aggregation in vivo was analysed using a C. elegans model for stress granule formation and aggregation. As previously described, fluorescent-tagged PAB-1 forms abundant stress granules and large solid aggregates during aging or upon chronic stress. RHO-1 and KIN-19 also aggregate during aging, but are not RNA binding or stress granule proteins. Three lines were used: Fluorescently tagged PAB-1 (DCD214: N2; uqIs24[pmyo-2::tagrfp::pab 1gene]), KIN-19 (CF3649: N2; muIs 209[pmyo-3::kin-19::tagrfp+ptph-1::GFP] and RHO-1 (DCD13: N2; uqIs9 [pmyo-2::rho-1::tagr fp+ptph-1::gfp]). Each were analysed as below, except DCD13 were maintained at 20° C.
The animals were exposed to lipoic acid in liquid culture in a 96 well plate starting from larval stage L4 in a total volume of 50 μl S-Complete per well (100 mM NaCl, 50 mM Potassium phosphate pH 6, 10 mM potassium citrate, 3 mM MgSO4, 3 mM CaCl2), 5 μg/mL cholesterol, 50 μM ethylenediaminetetraacetic acid (EDTA), 25 μM FeSO4, 10 μM MnCl2, 10 μM ZnSO4, 1 μM CuSO4) supplemented with heat-killed OP50 and 50 μg/ml carbenicillin. […] Toxicity was evaluated from the number of dead or aberrantly small-sized animals.
48 h after switching the L4s from 20° C. to 25° C. […] After immobilization with 2 mM levamisole aggregation was scored using a fluorescent stereo microscope (Leica M165 FC, Plan Apo 2.0× objective). […]

droplet size-corrected relaxation (fusion) time ([2]; 300 μM lipoamide vs 0.3% DMSO)	concentration required for an effect on condensate liquidity in vitro ([2]; with 1 μM FUS)	behaviour in worm culture medium [3]	concentration able to be reached in vitro ([3]; H2O with 1% v/v DMSO)	Structure (SMILES)	cytoplasmic FUS droplets dissolved ([1]; 1 h arsenate pre-stress, then 10 μM lipoamide with 1 mM arsenate, within 20 minutes)	stress granule formation after compound wash-out ([1]; 1 h pre-treatment 10 μM, then 1 h arsenate stress without compound)	FUS eGFP condensate liquidity ([2]; rate of fusion and relaxation to a sphere)	KIN-19 aggregation [4]
reduces fusion time	~100 µM	precipitation in the worm culture medium	300 µM	NC(=O)CCCCC1CCSS1 (racemic) [lipoamide, 5-(1,2-dithiolan-3-yl)pentanamide]	80-90%	did not prevent stress granule formation	increased the liquidity by a factor of three	–
–	–	–	–	O=C(O)CCCCC1CCSS1 (racemic) [lipoic acid, 5-(1,2-dithiolan-3-yl)pentanoic acid]	–	–	–	mild decrease
